Where two headings read alike, the source gives them in different places.
How the values were obtained:
[1] = system: AP-neuroligin-1 on hippocampal neurons; assay: Clustering of biotinylated AP-neuroligin-1 on hippocampal neurons; type: cell-based, rat; settings: for AP-neuroligin-1 clusters/μm: two hour incubation at 37° C., ± s.e.m., n=9; for AP-neuroligin-1 staining pattern: zero hours
Procedure: HeLa cells were grown in Dulbecco's Modified Eagle Medium (DMEM) with 10% Fetal Calf Serum, 50 U/mL penicillin and 50 μg/mL streptomycin. HeLa stably expressing AP-CFP-TM or Ala-CFP-TM have been previously described (Howarth, M. et al. Proc. Natl. Acad. Sci. USA 102: 7583-7588, 2005). Dissociated primary neuronal cultures were prepared from Embryonic Day 18 or 19 (E18/19) rats and transfected with Lipofectamine 2000 at DIV6 as in Levinson et al. (Levinson, J. N. et al. J. Biol. Chem. 280: 17312-17319, 2005).
(§1) Enzymatic biotinylation and imaging of HeLa transfectants were performed as previously described (Howarth, M. et al. Proc. Natl. Acad. Sci. USA 102: 7583-7588, 2005), except instead of 10 μM biotin and 1 mM ATP, we added 10 μM biotin-AMP (synthesized according to Coleman and Huang; Coleman, T. M. and Huang, F. Chem. Biol. 9: 1227-1236, 2002) to give equivalent biotinylation but minimizing the risk of purinoreceptor activation by ATP (Rathbone, M. P. et al., Prog. Neurobiol. 59: 663-690, 1999). […] Biotinylation of neurons was performed at day in vitro (DIV) 8 in Hanks' Balanced Salt Solution (HBSS) (Invitrogen) with 0.2 μM biotin ligase and 10 μM biotin-AMP for 5 min at 37° C. […] Neurons were washed with NeuroBasal media (Invitrogen) supplemented with B-27 (Invitrogen), 50 U/mL penicillin, 50 μg/mL streptomycin, and 0.2 mM L-glutamine and chased in the same medium for 0 or 2 hr at 37° C. Cells were then fixed in −20° C. methanol. There was no signal from wild-type streptavidin labeling if neurons were instead transfected with Ala-neuroligin-1 containing a point mutation in AP, confirming the specificity of labeling (Howarth, M. et al. Proc. Natl. Acad. Sci. USA 102: 7583-7588, 2005). To observe synapse formation, cells were biotinylated and stained with streptavidin as above, biotinylation and streptavidin staining was repeated at 6 hr, and then after 24 hr total chase cells were fixed in methanol. […]
Images of HeLa cells were collected on a Zeiss Axiovert 200M inverted epifluorescence microscope using a 40× oil-immersion lens and a MicroMAX CCD camera (Roper Scientific; Tucson, Ariz.). CFP (420DF20 excitation, 450DRLP dichroic, 475DF40 emission) and Alexa568 (560DF20 excitation, 585DRLP dichroic, 605DF30 emission) images were collected and analyzed using OpenLab software (Improvision; Lexington, Mass.). Fluorescence images were background-corrected. […] Images were scaled to 16 bits and analyzed in Northern Eclipse (Empix Imaging; Ontario, Canada) with user-written software. […] Results were then calculated in terms of clusters per micrometer of dendrite. For assessment of pre-synaptic terminals, clusters were determined as before and average grey levels of clusters were compared between transfected dendrites and untransfected dendrites within the same field of view. […]

[2] = Off-rate of 3H-biotin with cold biotin chase and precipitation; type: binding; settings: 10 nM 3H-biotin, 1 μM streptavidin, 50 μM cold biotin, 37° C.; ± s.e.m.
Procedure: (Green, N. M. Methods in Enzymol. 184: 51-67, 1990). Dissociation was then initiated by addition of cold biotin at a final concentration of 50 μM and time-points taken over 5 hours at 37° C. 50 μL aliquots were removed and added to 200 μL 0.2M ZnSO4 chilled on ice, followed by 200 μL 0.2 M NaOH. The protein precipitate was pelleted by centrifugation at 16,500 g for 5 min, and ^3H-biotin in the supernatant was measured by liquid scintillation counting. Data were plotted as ln(fraction bound) versus time, and fit to a straight line by linear regression. Dissociation rates were deduced from the slope of the line and the equation: ln(fraction bound)=−koff(t) where fraction bound=(total ^3H-biotin−free ^3H-biotin at timepoint)/(total ^3H-biotin−free ^3H-biotin before cold biotin chase).

[3] = system: biotinylated AP-CFP-TM on HeLa cells; assay: Staining of biotinylated AP-CFP-TM on HeLa cells with Alexa Fluor 568 conjugates; type: cell-based; settings: 10 μg/mL Alexa Fluor 568 conjugate, 10 min at 4° C.
Procedure: as §1, with “methanol.” for “methanol. There was no signal from wild-type streptavidin labeling if neurons were instead transfected with Ala-neuroligin-1 containing a point mutation in AP, confirming the specificity of labeling (Howarth, M. et al. Proc. Natl. Acad. Sci. USA 102: 7583-7588, 2005). To observe synapse formation, cells were biotinylated and stained with streptavidin as above, biotinylation and streptavidin staining was repeated at 6 hr, and then after 24 hr total chase cells were fixed in methanol.”
Images of HeLa cells were collected on a Zeiss Axiovert 200M inverted epifluorescence microscope using a 40× oil-immersion lens and a MicroMAX CCD camera (Roper Scientific; Tucson, Ariz.). CFP (420DF20 excitation, 450DRLP dichroic, 475DF40 emission) and Alexa568 (560DF20 excitation, 585DRLP dichroic, 605DF30 emission) images were collected and analyzed using OpenLab software (Improvision; Lexington, Mass.). Fluorescence images were background-corrected. […] Images were scaled to 16 bits and analyzed in Northern Eclipse (Empix Imaging; Ontario, Canada) with user-written software. […] Results were then calculated in terms of clusters per micrometer of dendrite. For assessment of pre-synaptic terminals, clusters were determined as before and average grey levels of clusters were compared between transfected dendrites and untransfected dendrites within the same field of view. […] “n” represents the number of transfected neurons for which clusters were measured. […]

[4] = Kd of D4 by 3H-biotin binding and protein precipitation
Procedure: After incubation at room temperature for 20 hr, the protein was precipitated by adding 50 μL to 200 μL 0.2 M ZnSO4 followed by 200 μL 0.2 M NaOH. The protein precipitate was pelleted by centrifugation at 16,500 g for 5 min. The biotin bound by D4 was calculated from the total ^3H -biotin added minus the ^3H -biotin in the supernatant. The Kd was obtained using a nonlinear regression analysis (one-site binding hyperbola) with SigmaPlot (Systat Software; Point Richmond, Calif.).

[5] = Thermostability assay of tetramer (heat, SDS-PAGE); type: physicochemical; settings: 3 min, PBS
Procedure: 2.3 μM wild-type streptavidin or chimeric streptavidin in PBS was heated at the indicated temperature for 3 min in a PTC-200 PCR machine (MJ Research; Waltham, Mass.) and then immediately placed on ice (Bayer, E. A. et al. Electrophoresis 17: 1319-1324, 1996). Samples were mixed with 6× SDS-PAGE loading buffer and loaded onto a 16% polyacrylamide gel.

[6] = Stability of monovalent streptavidin to subunit exchange (SDS-PAGE); type: physicochemical; settings: for A1D3 rearranged into D4: PBS
Procedure: Methods described in the Methods section above herein were used for the following production and testing of monovalent streptavidin. Tests were performed to determine whether monovalent streptavidin would rearrange its subunit composition over time.

[7] = system: biotinylated cells; assay: Binding to biotinylated cells; type: cell-based
[8] = literature value; read-out: Kd for biotin; cited from earlier work

Substance	AP-neuroligin-1 clusters/μm [1] [clusters/μm]	AP-neuroligin-1 staining pattern [1]	off-rate from biotin [2]	Alexa staining of biotinylated AP-CFP-TM [3]	also measured
wild-type streptavidin: wild-type core streptavidin tetramer with 4 biotin binding sites (SEQ ID NO:2) [reference compound]	0.266±0.011	diffuse surface staining	5.17±0.25×10^−5 s^−1	detected equally well	
D4: streptavidin with 4 dead subunits (N23A, S27D, S45A; SEQ ID NO:3) [Tetramer D4]				no detectable staining	biotin binding (in words) [4]: negligible biotin binding; Kd ([4]; 24 μM D4, 0-500 μM 3H-biotin, room temperature 20 hr, ± s.e.m.): 918 ± 0.0117 µM
A1D3: chimeric streptavidin tetramer with one Alive (wild-type, His6-tagged) subunit and three Dead (N23A, S27D, S45A) subunits [Tetramer A1D3]	0.087±0.021	diffuse surface staining	6.14±0.19×10^−5 s^−1	detected equally well	tetramer stability to heat denaturation ([5]; 100° C.): A significant fraction of A1D3 remained tetrameric; thermostability compared with wild-type streptavidin ([5]; various temperatures): little difference; A1D3 rearranged into D4 ([6]; 37° C. incubation for one day): 2%; Formation of A2D2 from subunit exchange ([6]; 37° C. one day or room temperature one week): not detected; A1D3 rearranged into D4 ([6]; room temperature incubation for one week): 3%
N23A, S27D: double mutant streptavidin tetramer with one of the weakest reported affinities for biotin					binding to biotinylated cells [7]: still bound; Kd [8]: 71 µM
